According to ChEMBL document CHEMBL1201862, “PubChem BioAssay data set” (2004):
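Step 1: Grow cells in 96-well plates. Step 2: Expose to compound for 48 hours at 5 concentrations. Step 3: Interpolate endpoints linearly; if unreached, use highest concentration. Here, GI50 denotes the concentration required for 50% inhibition of growth.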 Active and inactive are the calls of the source. No stated cut-off is given here; in the data, active = GI50 up to about 1.1 µM and inactive = higher.

How the values were obtained:
Test in all cases: NCI tumour cell line growth inhibition, 48 h
[1] = system: SK-MEL-28
[2] = system: BT-549
[3] = system: SR
[4] = system: OVCAR-4
[5] = system: HT-29
[6] = system: HOP-62
[7] = system: A498
[8] = system: PC-3
[9] = system: A549
[10] = system: LOX IMVI
[11] = system: SK-MEL-5
[12] = system: T47D
[13] = system: SW-620
[14] = system: NCI-H522
[15] = system: SF-539
[16] = system: CCRF-CEM
[17] = system: M14
[18] = system: NCI/ADR-RES
[19] = system: MDA-MB-435
[20] = system: UACC-62

Measured: GI50

COc1ccc(Cc2n[nH]c(Nc3ccc(Br)cc3)nc2=O)cc1OC
inactive: [1] > 89.9 µM | [2] 27 µM | [3] 30.3 µM | [4] > 100 µM | [5] > 100 µM | [6] 42.9 µM | [7] > 100 µM | [8] > 92.5 µM | [9] > 100 µM | [10] 69.5 µM | [11] > 87.9 µM | [12] 94.2 µM | [13] > 100 µM | [14] 57.7 µM | [15] > 100 µM | [16] 59.2 µM | [17] > 89.7 µM | [18] > 100 µM | [19] 14.2 µM | [20] 65.8 µM

O=c1c(O)c(-c2cc(O)c(O)c(O)c2)oc2cc(O)cc(O)c12 [MYRICETIN]
inactive: [1] > 100 µM | [2] 32.6 µM | [3] 40.7 µM | [4] 16.3 µM | [5] 20.3 µM | [6] 20.3 µM | [7] > 100 µM | [8] > 100 µM | [9] 33.8 µM | [10] 13.6 µM | [11] 31.5 µM | [12] > 100 µM | [13] 19.5 µM | [14] 68.1 µM | [15] > 100 µM | [16] 64.6 µM | [17] 32.1 µM | [18] 22.4 µM | [19] 17.7 µM | [20] 39.5 µM
